Source: patent publication US8119624B2, “Fused phenyl amido heterocyclic compounds” (Pfizer Inc., priority 2006, dated 2012)
Read-outs that look alike come from different tables or passages of the source.

Biological target: T1, Full-length glucokinase (beta cell isoform) (Homo sapiens, UniProt P35557)
T1 construct: Full-length glucokinase (beta cell isoform) was His-tagged at N-terminus; His tag (N); made in house
T1 sequence (P35557 1-465): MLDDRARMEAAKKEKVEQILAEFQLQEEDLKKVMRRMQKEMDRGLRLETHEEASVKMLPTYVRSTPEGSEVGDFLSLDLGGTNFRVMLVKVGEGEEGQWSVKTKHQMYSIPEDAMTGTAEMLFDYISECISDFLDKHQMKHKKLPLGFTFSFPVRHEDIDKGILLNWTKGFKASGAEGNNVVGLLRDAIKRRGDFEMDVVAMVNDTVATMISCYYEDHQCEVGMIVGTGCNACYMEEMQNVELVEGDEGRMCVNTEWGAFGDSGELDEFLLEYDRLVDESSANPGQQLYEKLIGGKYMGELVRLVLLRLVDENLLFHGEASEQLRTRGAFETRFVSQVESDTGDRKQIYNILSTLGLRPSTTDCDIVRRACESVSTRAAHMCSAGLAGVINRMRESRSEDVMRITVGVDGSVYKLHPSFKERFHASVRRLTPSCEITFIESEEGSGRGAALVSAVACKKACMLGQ
Experiment: Glucokinase biochemical assay (PK/LDH-coupled, NADH depletion at 340 nm): % activation, EC50, % max activation
Details: 5 mM glucose; for activation at 10 µM: read-out: % Activation at 10 uM; for EC50: read-out: EC50; for Emax: read-out: % Max Activation
Procedure: Full-length glucokinase (beta cell isoform) was His-tagged at N-terminus and purified by a Ni column followed by size exclusion chromatography. Glucose was obtained from Calbiochem, and other reagents were from Sigma.
All assays were performed in a Corning 96-well plate using Spectramax PLUS spectrophotometer (Molecular Devices) at room temperature. The final assay volume was 100 uL. The buffer conditions used in this assay were as follows: 50 mM HEPES, 5 mM glucose, 1 mM ATP, 2 mM MgCl2, 0.7mM NADH, 2 mM DTT, 1 Unit/mL PK/LDH, 0.2 mM phosphoenolpyruvate, 25 mM KCl. Tested compound in DMSO solution was added to the buffer and mixed well by a plate shaker for 1 minute. The final concentration of DMSO introduced into the assay was 1%.
Glucokinase was added to the buffer mixture to initiate the reaction in the presence and absence of compound. Reaction was monitored by absorbance at 340nm due to the depletion of NADH. The initial reaction velocity was measured by the slope of a linear time course of 200-900 sec.
The percentage of activation was calculated by the following equation: % Activation=(Va/Vo−1)×100;
wherein each of Va and Vo is defined as the initial reaction velocity in the presence and absence of the tested compound, respectively.
The GK activities were measured as a function of compound concentrations.

[1] = 10 uM compound, % Activation=(Va/Vo−1)×100
[2] = compound at 10 uM, 1 mM ATP, room temperature

SMILES | activation at 10 µM [1] [%] | EC50 (GK activation) [µM] | Emax (fitted maximum activation) [%] | EC50 (1 mM ATP, room temperature) [µM] | activation at 10 µM [2] [%] | % Activation at 10 uM [1] [%] | % Max Activation (fitted maximum activation) [%]
Cc1csc2cc(C(=O)Nc3ccn(C)n3)cc(O[C@@H](C)Cc3ccccc3)c12 [Example 354, 3-Methyl-4-[(1S)-1-methyl-2-phenylethoxy]-N-(1-methyl-1H-pyrazol-3-yl)-1-benzothiophene-6-carboxamide] | 3.5 | – | – | – | – | – | –
Cn1ccc(NC(=O)c2cc(OCC3CC3)c3c(c2)OC(C)(C)C3)n1 [Example 89, 4-Cyclopropylmethoxy-2,2-dimethyl-2,3-dihydro-benzofuran-6-carboxylic acid (1-methyl-1H-pyrazol-3-yl)-amide] | 139 | 3.9 | 157 | – | – | – | –
Cc1cc2c(Oc3ccc(S(=O)(=O)N4CCC4)cc3)cc(C(=O)Nc3ccc(CO)cn3)cc2o1 [Example 301, 4-(4-(Azetidin-1-ylsulfonyl)phenoxy)-N-(5-(hydroxymethyl)-pyridin-2-yl)-2-methylbenzofuran-6-carboxamide] | 168 | 0.15 | 137 | – | – | – | –
CC1(C)Cc2c(Oc3ccc(S(C)(=O)=O)cc3)cc(C(=O)Nc3ccon3)cc2O1 [Example 26, 4-(4-Methanesulfonyl-phenoxy)-2,2-dimethyl-2,3-dihydro-benzofuran-6-carboxylic acid isoxazol-3-ylamide] | 197 | 0.4 | 200 | – | – | – | –
COCCN1Cc2c(Oc3ccc(S(C)(=O)=O)cc3)cc(C(=O)Nc3ccc(C)cn3)cc2C1=O [Example 387, 2-(2-Methoxyethyl)-N-(5-methylpyridin-2-yl)-7-(4-(methylsulfonyl)-phenoxy)-3-oxoisoindoline-5-carboxamide] | – | – | – | > 10 | 42.9 | – | –
Cn1ccc(NC(=O)c2cc(OC3CN(S(C)(=O)=O)C3)c3c(c2)OC(C)(C)C3)n1 [Example 193, 4-(1-Methanesulfonyl-azetidin-3-yloxy)-2,2-dimethyl-2,3-dihydro-benzofuran-6-carboxylic acid (1-methyl-1H-pyrazol-3-yl)-amide] | 116 | 8.8 | 237 | – | – | – | –
Cc1cc2c(OC3CN(S(C)(=O)=O)C3)cc(C(=O)Nc3ccn(C)n3)cc2o1 [Example 327, 2-Methyl-N-(1-methyl-1H-pyrazol-3-yl)-4-{[1-(methylsulfonyl)-azetidin-3-yl]oxy}-1-benzofuran-6-carboxamide] | 108 | > 10 | – | – | – | – | –
Cn1ncc(NC(=O)c2cc(Oc3ccc(S(C)(=O)=O)cc3Cl)c3c(c2)OC(C)(C)C3)n1 [Example 119, 4-(2-Chloro-4-methanesulfonyl-phenoxy)-2,2-dimethyl-2,3-dihydro-benzofuran-6-carboxylic acid (2-methyl-2H-[1,2,3]triazol-4-yl)-amide] | 242 | 0.43 | 223 | – | – | – | –
Cc1ccc(NC(=O)c2cc(Oc3ccc(C(=O)N(C)C)c(F)c3)c3cc(C)sc3c2)nc1 [Example 361, 4-(4-(Dimethylcarbamoyl)-3-fluorophenoxy)-2-methyl-N-(5-methylpyridin-2-yl)benzo[b]thiophene-6-carboxamide] | 4.2 | – | – | – | – | – | –
CN(C)C(=O)c1ccc(Oc2cc(C(=O)Nc3ccn(C)n3)cc3c2CC(C)(C)O3)cc1Cl [Example 108, 4-(3-Chloro-4-dimethylcarbamoyl-phenoxy)-2,2-dimethyl-2,3-dihydro-benzofuran-6-carboxylic acid (1-methyl-1H-pyrazol-3-yl)-amide] | 82.2 | 0.076 | 107 | – | – | – | –
COC(=O)c1ccc(NC(=O)c2cc(Oc3ccc(S(C)(=O)=O)cc3)c3cc(C)oc3c2)nc1 [Example 264, Methyl 6-(2-methyl-4-(4-(methylsulfonyl)phenoxy)benzofuran-6-carboxamido)nicotinate] | 80.5 | 1.3 | 79 | – | – | – | –
Cc1cc2c(Oc3ccc(S(=O)(=O)N4CCC4)cc3)cc(C(=O)Nc3ccccn3)cc2o1 [Example 296, 4-(4-(Azetidin-1-ylsulfonyl)phenoxy)-2-methyl-N-(pyridin-2-yl)benzofuran-6-carboxamide] | 70 | 0.2 | 77 | – | – | – | –
Cc1ccc(NC(=O)c2cc(Oc3ccc(S(C)(=O)=O)cc3)cc3occc23)nc1 [Example 7, 6-(4-Methanesulfonyl-phenoxy)-benzofuran-4-carboxylic acid(5-methyl-pyridin-2-yl)-amide] | 99.7 | 3.7 | 129 | – | – | – | –
Cc1ccc(NC(=O)c2cc(Oc3ccc(S(C)(=O)=O)cc3)c3ccn(C)c(=O)c3c2)nc1 [Example 394, 2-Methyl-N-(5-methylpyridin-2-yl)-5-(4-(methylsulfonyl)-phenoxy)-1-oxo-1,2-dihydroisoquinoline-7-carboxamide] | – | – | – | – | 32 | – | –

Second part, the molecule after the results:

activation at 10 µM [1] [%] | EC50 (GK activation) [µM] | Emax (fitted maximum activation) [%] | EC50 (1 mM ATP, room temperature) [µM] | activation at 10 µM [2] [%] | % Activation at 10 uM [1] [%] | % Max Activation (fitted maximum activation) [%] | SMILES
189 | 0.098 | 157 | – | – | – | – | COCC1(C)Cc2c(Oc3ccc(S(C)(=O)=O)c(F)c3)cc(C(=O)Nc3ccn(C)n3)cc2O1 (stereo not shown) [Example 237, 4-(3-Fluoro-4-methanesulfonyl-phenoxy)-2-methoxymethyl-2-methyl-2,3-dihydro-benzofuran-6-carboxylic acid (1-methyl-1H-pyrazol-3-yl)-amide]
164 | 0.73 | 174 | – | – | – | – | Cn1ccc(NC(=O)c2cc(Oc3ccc(C(=O)N4CC(F)(F)C4)cc3F)c3c(c2)OC(C)(C)C3)n1 [Example 43, 4-[4-(3,3-Difluoro-azetidine-1-carbonyl)-2-fluoro-phenoxy]-2,2-dimethyl-2,3-dihydro-benzofuran-6-carboxylic acid(1-methyl-1H-pyrazol-3-yl)-amide]
298 | 0.13 | 250 | – | – | – | – | Cn1ncc(NC(=O)c2cc(Oc3ccc(C(=O)N4CCC4)cc3)c3c(c2)OC(C)(C)C3)n1 [Example 160, 4-[4-(Azetidine-1-carbonyl)-phenoxy]-2,2-dimethyl-2,3-dihydro-benzofuran-6-carboxylic acid (2-methyl-2H-[1,2,3]triazol-4-yl)-amide]
178 | 2.6 | 224 | – | – | – | – | CN(C)C(=O)c1cc2c(Oc3ccc(S(C)(=O)=O)cc3)cc(C(=O)Nc3ccn(C)n3)cc2o1 [Example 286, N2,N2-Dimethyl-N6-(1-methyl-1H-pyrazol-3-yl)-4-[4-(methylsulfonyl)phenoxy]-1-benzofuran-2,6-dicarboxamide]
153 | 0.7 | 165 | – | – | – | – | Cn1ccc(NC(=O)c2cc(Oc3ccc(C(=O)N4CC[C@H](O)C4)c(F)c3)c3c(c2)OC(C)(C)C3)n1 [Example 62, 4-[3-Fluoro-4-((S)-3-hydroxy-pyrrolidine-1-carbonyl)-phenoxy]-2,2-dimethyl-2,3-dihydro-benzofuran-6-carboxylic acid(1-methyl-1H-pyrazol-3-yl)-amide]
172 | 0.199 | 184 | – | – | – | – | CCNC(=O)c1ccc(Oc2cc(C(=O)Nc3ccn(C)n3)cc3c2CC(C)(C)O3)cn1 [Example 168, 5-[2,2-Dimethyl-6-(1-methyl-1H-pyrazol-3-ylcarbamoyl)-2,3-dihydro-benzofuran-4-yloxy]-pyridine-2-carboxylic acid ethylamide]
13 | – | – | – | – | – | – | COCC1Cc2c(OC(C)C)cc(C(=O)Nc3ccn(C)n3)cc2O1 (stereo not shown) [Example 216, 4-Isopropoxy-2-methoxymethyl-2,3-dihydro-benzofuran-6-carboxylic acid (1-methyl-1H-pyrazol-3-yl)-amide]
– | 0.85 | – | – | – | 130 | 143 | COCC1Cc2c(Oc3ccc(C(=O)N4CCC4)cc3)cc(C(=O)Nc3ccn(C)n3)cc2O1 (single isomer, unassigned; (+)) [Example 210, (+)-4-[4-(Azetidine-1-carbonyl)-phenoxy]-2-methoxymethyl-2,3-dihydro-benzofuran-6-carboxylic acid (1-methyl-1H-pyrazol-3-yl)-amide]
– | – | – | > 10 | 67.9 | – | – | CCN1Cc2c(Oc3ccc(S(C)(=O)=O)cc3)cc(C(=O)Nc3ccn(C)n3)cc2C1=O [Example 380, 2-Ethyl-N-(1-methyl-1H-pyrazol-3-yl)-7-(4-(methylsulfonyl)-phenoxy)-3-oxoisoindoline-5-carboxamide]
